pIC50: −log10 of the molar value.
Tests used:
[1] = target: HDAC (HeLa nuclear extracts); assay: HDAC enzyme assay, HeLa nuclear extracts; conditions: read-out: In Vitro Enzymatic IC50 HDAC (HeLa)
COLO 205 = assay: cells; conditions: Homo sapiens, COLO 205, 72 h, read-out: In Vitro Cellular IC50 COLO 205
Experimental: Cells were cultivated at 37° C., 5% CO2 in media containing 10% FBS and 2 mM glutamine Cells were routinely monitored with MycoAlert™ PLUS Mycoplasma Detection Kit (Lonza Walkersville, Inc.) to make sure they were mycoplasma free. Antibiotics (100 U/mL of penicillin and 100 μg/mL of streptomycin) were only added to the media used for compound dilution and cells in 96-well assay plates.
For a typical screening experiment, cells (100 μL/well) are inoculated into 96 well microtiter plates at plating densities ranging from 2,000 to 30,000 cells/well depending on the doubling time of individual cell lines and assay linearity. […] Suspension cells are treated with test compounds immediately after cell inoculation.
Test compounds are serially diluted (3-fold or 4-fold, 8-concentration) using the same media and added to the plates (15 to 25 μL/well). After 72 h of cultivation, the plates are assayed for cell cytotoxicity/viability by using the following two methods.
Cells in plates are fixed with cold trichloroacetic acid (TCA) (50% w/v in DI water, 1/4 volume of the medium in each well), and incubated at 4° C. for 1 h (adherent cells) or 2 h (suspension cells). The plates are washed 5 times (tap water×3, DI water×2) and air-dried. SRB solution 0.4% (w/v) in 1% acetic acid is added to each well (60 μL/well) and the plates are incubated at room temperature for 30 min, then washed with 1% acetic acid solution 4 times, and air-dried.
The plates are added CellTiter-Glo® Reagent (95 μL/well) and read the luminescence on a BioTek H4 reader per manufacture's protocol.
The raw data are processed using BioTek's Software Gen5 (v2.03.01) to generate inhibitory IC50 values.

HepG2 = assay: Anti-proliferative assay (cellular IC50), HepG2; conditions: Homo sapiens, HepG2, 72 h, read-out: In Vitro Cellular IC50 HepG2
MV-4-11 = assay: cells; conditions: Homo sapiens, MV4-11, 72 h, read-out: In Vitro Cellular IC50 MV-4-11
MCF7 = assay: Anti-proliferative assay (cellular IC50), MCF7; conditions: Homo sapiens, MCF7, 72 h, read-out: In Vitro Cellular IC50 MCF7
PC-3 = assay: Anti-proliferative assay (cellular IC50), PC-3; conditions: Homo sapiens, PC-3, 72 h, read-out: In Vitro Cellular IC50 PC-3
K-562 = assay: Anti-proliferative assay (cellular IC50), K-562; conditions: Homo sapiens, K562, 72 h, read-out: In Vitro Cellular IC50 K-562
PI3Kα = target: T1, PI3Kα (Homo sapiens, UniProt P42336); assay: Kinase enzyme assay (ADP-Glo), PI3Kα; type: biochemical; conditions: read-out: In Vitro Enzymatic IC50 PI3Kα
T1 construct: purchased Invitrogen, or BPS Bioscience Inc., or SignalChem PV4788 / 40620 / P27-18H
T1 sequence (P42336 whole entry): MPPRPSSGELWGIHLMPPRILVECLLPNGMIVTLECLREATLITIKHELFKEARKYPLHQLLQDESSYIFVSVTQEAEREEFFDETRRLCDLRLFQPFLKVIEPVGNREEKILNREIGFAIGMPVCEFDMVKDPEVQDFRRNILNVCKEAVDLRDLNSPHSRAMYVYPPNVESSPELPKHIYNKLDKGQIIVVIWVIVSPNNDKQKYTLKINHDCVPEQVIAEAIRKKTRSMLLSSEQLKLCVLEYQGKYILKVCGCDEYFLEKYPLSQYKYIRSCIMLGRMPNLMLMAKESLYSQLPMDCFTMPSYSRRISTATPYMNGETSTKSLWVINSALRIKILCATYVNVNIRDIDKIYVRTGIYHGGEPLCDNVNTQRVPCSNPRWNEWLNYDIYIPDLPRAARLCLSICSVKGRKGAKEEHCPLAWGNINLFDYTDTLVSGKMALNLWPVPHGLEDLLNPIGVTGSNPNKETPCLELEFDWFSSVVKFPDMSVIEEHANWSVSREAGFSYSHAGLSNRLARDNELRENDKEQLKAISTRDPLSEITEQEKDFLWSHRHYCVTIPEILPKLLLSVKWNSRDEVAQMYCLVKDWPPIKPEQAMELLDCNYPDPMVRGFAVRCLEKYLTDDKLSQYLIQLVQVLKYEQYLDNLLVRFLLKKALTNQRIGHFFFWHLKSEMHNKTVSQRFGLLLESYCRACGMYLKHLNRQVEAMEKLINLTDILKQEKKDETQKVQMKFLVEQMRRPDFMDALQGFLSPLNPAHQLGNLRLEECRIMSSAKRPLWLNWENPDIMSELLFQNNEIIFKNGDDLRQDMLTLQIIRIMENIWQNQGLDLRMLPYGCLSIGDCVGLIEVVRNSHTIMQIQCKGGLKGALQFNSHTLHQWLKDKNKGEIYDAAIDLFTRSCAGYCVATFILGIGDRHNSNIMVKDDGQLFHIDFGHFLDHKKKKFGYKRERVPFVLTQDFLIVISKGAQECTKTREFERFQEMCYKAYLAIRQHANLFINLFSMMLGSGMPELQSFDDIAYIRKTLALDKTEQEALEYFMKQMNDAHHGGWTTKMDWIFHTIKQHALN
T1 sequence (P27986 whole entry partner): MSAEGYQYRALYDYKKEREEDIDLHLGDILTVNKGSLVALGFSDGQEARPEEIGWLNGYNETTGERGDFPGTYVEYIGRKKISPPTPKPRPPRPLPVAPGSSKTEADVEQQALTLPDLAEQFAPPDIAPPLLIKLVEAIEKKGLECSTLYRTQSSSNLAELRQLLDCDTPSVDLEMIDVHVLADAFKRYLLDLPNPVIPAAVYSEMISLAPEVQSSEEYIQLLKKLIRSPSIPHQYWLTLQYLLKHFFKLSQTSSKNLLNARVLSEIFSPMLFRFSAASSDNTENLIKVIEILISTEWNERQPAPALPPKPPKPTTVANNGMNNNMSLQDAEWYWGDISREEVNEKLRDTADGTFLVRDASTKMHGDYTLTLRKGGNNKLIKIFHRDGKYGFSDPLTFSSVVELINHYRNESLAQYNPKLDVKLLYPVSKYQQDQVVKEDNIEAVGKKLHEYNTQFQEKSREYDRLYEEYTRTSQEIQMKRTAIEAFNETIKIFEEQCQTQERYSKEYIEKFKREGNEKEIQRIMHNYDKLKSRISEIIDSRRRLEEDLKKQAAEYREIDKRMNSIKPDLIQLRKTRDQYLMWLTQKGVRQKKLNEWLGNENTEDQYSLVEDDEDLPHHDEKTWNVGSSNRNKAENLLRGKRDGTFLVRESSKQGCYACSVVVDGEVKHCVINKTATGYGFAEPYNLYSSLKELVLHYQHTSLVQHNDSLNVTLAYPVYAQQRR

HDAC1 = HDAC1 (Homo sapiens, UniProt Q13547); assay: HDAC enzyme assay, recombinant HDAC1
Chain of HDAC1 (Q13547 whole entry): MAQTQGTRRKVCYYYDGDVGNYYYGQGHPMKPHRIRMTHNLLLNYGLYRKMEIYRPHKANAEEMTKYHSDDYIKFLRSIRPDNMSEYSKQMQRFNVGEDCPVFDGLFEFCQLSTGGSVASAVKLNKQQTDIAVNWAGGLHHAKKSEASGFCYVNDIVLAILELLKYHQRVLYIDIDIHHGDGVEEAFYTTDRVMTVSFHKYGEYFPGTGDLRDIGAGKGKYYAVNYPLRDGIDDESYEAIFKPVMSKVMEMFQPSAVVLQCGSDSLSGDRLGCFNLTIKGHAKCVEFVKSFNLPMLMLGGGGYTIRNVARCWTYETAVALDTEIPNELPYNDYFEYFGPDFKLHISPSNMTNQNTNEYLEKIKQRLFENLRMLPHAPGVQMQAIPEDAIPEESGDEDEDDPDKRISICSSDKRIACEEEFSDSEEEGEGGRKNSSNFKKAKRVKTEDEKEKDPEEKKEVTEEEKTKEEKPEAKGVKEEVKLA

MOLT-4 = assay: Anti-proliferative assay (cellular IC50), MOLT-4; conditions: Homo sapiens, MOLT-4, 72 h, read-out: In Vitro Cellular IC50 MOLT-4
HCT 116 = assay: cells; conditions: Homo sapiens, HCT-116, 72 h, read-out: In Vitro Cellular IC50 HCT 116
HDAC6 = target: T2, HDAC6 (Homo sapiens, UniProt Q9UBN7); assay: HDAC enzyme assay, recombinant HDAC6
T2 sequence (Q9UBN7 1-1215): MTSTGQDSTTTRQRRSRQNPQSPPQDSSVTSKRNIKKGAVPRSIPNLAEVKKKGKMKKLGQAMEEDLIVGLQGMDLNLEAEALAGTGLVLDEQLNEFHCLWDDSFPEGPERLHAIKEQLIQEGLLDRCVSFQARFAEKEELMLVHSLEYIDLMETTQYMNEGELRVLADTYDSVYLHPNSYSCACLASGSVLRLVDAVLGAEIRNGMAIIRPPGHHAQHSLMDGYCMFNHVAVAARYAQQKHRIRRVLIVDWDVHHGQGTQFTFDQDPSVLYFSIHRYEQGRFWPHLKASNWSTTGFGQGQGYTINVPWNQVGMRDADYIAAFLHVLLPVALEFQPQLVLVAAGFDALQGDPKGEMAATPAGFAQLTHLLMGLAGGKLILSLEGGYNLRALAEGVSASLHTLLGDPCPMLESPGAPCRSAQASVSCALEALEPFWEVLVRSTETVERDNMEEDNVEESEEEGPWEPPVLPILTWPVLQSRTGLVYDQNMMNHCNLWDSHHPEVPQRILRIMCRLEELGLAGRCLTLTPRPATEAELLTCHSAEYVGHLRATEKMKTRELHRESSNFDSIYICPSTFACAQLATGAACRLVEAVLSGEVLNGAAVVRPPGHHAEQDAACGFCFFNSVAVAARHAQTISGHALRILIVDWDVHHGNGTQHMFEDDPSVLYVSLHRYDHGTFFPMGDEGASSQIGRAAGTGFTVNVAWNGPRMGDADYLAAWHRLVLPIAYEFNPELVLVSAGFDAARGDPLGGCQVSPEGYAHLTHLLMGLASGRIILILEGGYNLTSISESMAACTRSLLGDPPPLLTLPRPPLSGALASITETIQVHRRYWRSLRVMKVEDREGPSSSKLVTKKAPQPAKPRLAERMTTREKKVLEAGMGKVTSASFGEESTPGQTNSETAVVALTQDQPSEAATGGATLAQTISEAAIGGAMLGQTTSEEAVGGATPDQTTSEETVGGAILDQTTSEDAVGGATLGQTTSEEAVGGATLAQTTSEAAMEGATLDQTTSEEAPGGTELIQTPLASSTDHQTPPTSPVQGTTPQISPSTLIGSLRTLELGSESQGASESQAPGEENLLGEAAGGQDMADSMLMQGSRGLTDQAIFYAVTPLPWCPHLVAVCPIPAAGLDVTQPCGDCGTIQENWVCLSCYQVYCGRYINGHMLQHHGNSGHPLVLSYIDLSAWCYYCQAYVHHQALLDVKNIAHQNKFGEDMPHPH

Row | Compound | pIC50 [1] | pIC50 (COLO 205) | pIC50 (MV-4-11) | pIC50 (MCF7) | pIC50 (K-562) | pIC50 (PI3Kα) | pIC50 (HDAC1) | pIC50 (MOLT-4) | pIC50 (HDAC6) | also measured
1 | CCn1c(CN(C)Cc2ccc(/C=C/C(=O)NO)cc2)nc2c(N3CCOCC3)nc(-c3ccc(C(N)=O)cc3)nc21 [compound 90, (E)-4-(9-ethyl-8-(((4-(3-(hydroxyamino)-3-oxoprop-1-en-1-yl)benzyl)(methyl)amino)methyl)-6-morpholino-9H-purin-2-yl)benzamide] | 6.00 to 7.00 | 5.00 to 5.70 | – | – | 5.00 to 5.70 | 6.00 to 7.00 | 6.00 to 7.00 | 5.00 to 5.70 | – | –
2 | Nc1ncc(-c2nc(N3CCOCC3)c3ncn(CCCCCCC(=O)NO)c3n2)cn1 [compound 41, 7-(2-(2-aminopyrimidin-5-yl)-6-morpholino-9H-purin-9-yl)-N-hydroxyheptanamide] | – | – | – | – | – | – | – | – | > 8.00 | –
3 | CCn1c(CN(C)Cc2ccc(/C=C/C(=O)NO)cc2)nc2c(N3CCOCC3)nc(-c3cccc(NC(C)=O)c3)nc21 [compound 92, (E)-3-(4-((((2-(3-acetamidophenyl)-9-ethyl-6-morpholino-9H-purin-8-yl)methyl)(methyl)amino)methyl)phenyl)-N-hydroxyacrylamide] | 6.00 to 7.00 | 5.00 to 5.70 | – | – | 5.00 to 5.70 | 6.00 to 7.00 | 6.00 to 7.00 | 5.00 to 5.70 | 6.00 to 7.00 | –
4 | CCn1c(CN(C)Cc2ccc(C(=O)NO)cc2)nc2c(N3CCOCC3)nc(-c3ccc(OC)nc3)nc21 [compound 96, 4-((((9-ethyl-2-(6-methoxypyridin-3-yl)-6-morpholino-9H-purin-8-yl)methyl)(methyl)amino)methyl)-N-hydroxybenzamide] | 6.00 to 7.00 | 5.70 to 6.30 | 5.70 to 6.30 | 5.70 to 6.30 | 5.00 to 5.70 | – | – | 5.70 to 6.30 | – | pIC50 (HepG2): 5.70 to 6.30; pIC50 (PC-3): 5.00 to 5.70; pIC50 (HCT 116): 5.70 to 6.30
5 | O=C(CCCCCCn1cnc2c(N3CCC(O)CC3)nc(-c3cccc(CO)c3)nc21)NO [compound 105, N-hydroxy-7-(2-(3-(hydroxymethyl)phenyl)-6-(4-hydroxypiperidin-l-yl)-9H-purin-9-yl)heptanamide] | > 8.00 | – | > 6.30 | 5.70 to 6.30 | – | – | – | > 6.30 | – | pIC50 (HCT 116): 5.70 to 6.30
6 | O=C(CCCCCCn1cnc2c(N3CCOCC3)nc(-c3cn[nH]c3)nc21)NO [compound 51, N-hydroxy-7-(6-morpholino-2-(1H-pyrazol-4-yl)-9H-purin-9-yl)heptanamide] | – | – | – | – | – | – | – | – | > 8.00 | –
7 | CCn1c(CN(C)Cc2ccc(/C=C/C(=O)NO)cc2)nc2c(N3CCOCC3)nc(-c3cccc(C(N)=O)c3)nc21 [compound 91, (E)-3-(9-ethyl-8-(((4-(3-(hydroxyamino)-3-oxoprop-1-en-1-yl)benzyl)(methyl)amino)methyl)-6-morpholino-9H-purin-2-yl)benzamide] | 6.00 to 7.00 | 5.00 to 5.70 | – | – | 5.00 to 5.70 | 6.00 to 7.00 | 6.00 to 7.00 | 5.00 to 5.70 | – | –
8 | CC(C)n1c(N2CCC(C(=O)NO)CC2)nc2c(N3CCOCC3)nc(-c3cnc(N)nc3)nc21 [compound 86, 1-(2-(2-aminopyrimidin-5-yl)-9-isopropyl-6-morpholino-9H-purin-8-yl)-N-hydroxypiperidine-4-carboxamide] | 5.00 to 6.00 | 5.00 to 5.70 | – | – | 5.00 to 5.70 | 7.00 to 8.00 | 5.00 to 6.00 | 5.70 to 6.30 | – | –
9 | CCn1c(CNCCCCCC(=O)NO)nc2c(N3CCOCC3)nc(-c3cnc(N)nc3)nc21 [compound 87, 6-(((2-(2-aminopyrimidin-5-yl)-9-ethyl-6-morpholino-9H-purin-8-yl)methyl)amino)-N-hydroxyhexanamide] | 6.00 to 7.00 | < 5.00 | – | – | < 5.00 | 7.00 to 8.00 | 6.00 to 7.00 | 5.00 to 5.70 | 6.00 to 7.00 | –

Further lines, with some results ahead:

Row | pIC50 [1] | pIC50 (COLO 205) | pIC50 (MV-4-11) | pIC50 (MCF7) | pIC50 (K-562) | pIC50 (PI3Kα) | pIC50 (HDAC1) | pIC50 (MOLT-4) | pIC50 (HDAC6) | Compound | also measured
10 | 7.00 to 8.00 | 5.00 to 5.70 | > 6.30 | 5.70 to 6.30 | – | – | – | – | – | CC(C)n1cnc2c(-c3ccc(F)c(OCCCC(=O)NO)c3)nc(N3CCOCC3)nc21 [compound 62, 4-(2-fluoro-5-(9-isopropyl-2-morpholino-9H-purin-6-yl)phenoxy)-N-hydroxybutanamide] | pIC50 (HepG2): 5.70 to 6.30; pIC50 (PC-3): 5.00 to 5.70
11 | 7.00 to 8.00 | – | > 6.30 | > 6.30 | – | – | – | > 6.30 | – | CCC(CC)n1cnc2c(-c3cccc(OCCCC(=O)NO)c3)nc(N3CCOCC3)nc21 [compound 101, N-hydroxy-4-(3-(2-morpholino-9-(pentan-3-yl)-9H-purin-6-yl)phenoxy)butanamide] | pIC50 (HepG2): 5.70 to 6.30; pIC50 (HCT 116): 5.70 to 6.30
12 | 7.00 to 8.00 | – | > 6.30 | 5.70 to 6.30 | 5.70 to 6.30 | – | 7.00 to 8.00 | > 6.30 | – | CC(C)n1ccc2c(-c3cccc(OCCCC(=O)NO)c3)nc(N3CCOCC3)nc21 [compound 76, N-hydroxy-4-(3-(7-isopropyl-2-morpholino-7H-pyrrolo[2,3-d]pyrimidin-4-yl)phenoxy)butanamide] | pIC50 (HepG2): 5.70 to 6.30; pIC50 (PC-3): 5.70 to 6.30; pIC50 (HCT 116): > 6.30
13 | – | – | – | – | – | – | – | – | 7.00 to 8.00 | Nc1ncc(-c2nc(N3CCOCC3)nc3c2ncn3CCCCCCC(=O)NO)cn1 [compound 3] | –
14 | – | – | – | – | – | – | – | – | 7.00 to 8.00 | COc1ncc(-c2nc(N3CCOCC3)c3ncn(CCCCCCC(=O)NO)c3n2)cn1 [compound 55, N-hydroxy-7-(2-(2-methoxypyrimidin-5-yl)-6-morpholino-9H-purin-9-yl)heptanamide] | –
15 | – | – | – | – | – | – | – | – | > 8.00 | O=C(CCCCCCn1ccc2c(N3CCOCC3)nc(-c3cccc(O)c3)nc21)NO [compound 79, N-hydroxy-7-(2-(3-hydroxyphenyl)-4-morpholino-7H-pyrrolo[2,3-d]pyrimidin-7-yl)heptanamide] | –
16 | – | – | – | – | – | 5.00 to 6.00 | 5.00 to 6.00 | – | – | CC(C)n1cnc2c(-c3cccc(OCC(=O)NO)c3)nc(N3CCOCC3)nc21 [compound 24, N-hydroxy-2-(3-(9-isopropyl-2-morpholino-9H-purin-6-yl)phenoxy)acetamide] | –
17 | 7.00 to 8.00 | – | > 6.30 | 5.70 to 6.30 | – | – | – | – | – | CC(C)n1ccc2c(-c3cccc(OCCCC(=O)NO)c3)nc(N3CCCC3)nc21 [compound 75, N-hydroxy-4-(3-(7-isopropyl-2-(pyrrolidin-1-yl)-7H-pyrrolo[2,3-d]pyrimidin-4-yl)phenoxy)butanamide] | pIC50 (HepG2): 5.00 to 5.70; pIC50 (PC-3): 5.00 to 5.70; pIC50 (HCT 116): 5.70 to 6.30
18 | – | – | – | – | – | – | – | – | > 8.00 | NC(=O)c1cccc(-c2nc(N3CCOCC3)c3ncn(CCCCCCC(=O)NO)c3n2)c1 [compound 49, 3-(9-(7-(hydroxyamino)-7-oxoheptyl)-6-morpholino-9H-purin-2-yl)benzamide] | –
19 | – | – | – | – | – | – | – | – | > 8.00 | CC(=O)Nc1cccc(-c2nc(N3CCOCC3)c3ncn(CCCCCCC(=O)NO)c3n2)c1 [compound 48, 7-(2-(3-acetamidophenyl)-6-morpholino-9H-purin-9-yl)-N-hydroxyheptanamide] | –
20 | – | – | – | – | – | – | – | – | 7.00 to 8.00 | COc1ccc(-c2nc(N3CCOCC3)c3ncn(CCCCCCC(=O)NO)c3n2)cn1 [compound 52, N-hydroxy-7-(2-(6-methoxypyridin-3-yl)-6-morpholino-9H-purin-9-yl)heptanamide] | –
